Reference: PubChem BioAssay (NCI)
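Values below derive from 48-hour exposures of cells grown in 96-well plates, with endpoints linearly interpolated between the two concentrations bracketing the appropriate inhibition level. TGI: total growth inhibition.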

What was measured:
Test in all cases: DTP human tumour cell line panel, 48 h
[1] = tested on: KM12 colon
[2] = tested on: SF-295 CNS
[3] = tested on: SF-539 CNS
[4] = tested on: MALME-3M melanoma
[5] = tested on: SN12C renal
[6] = tested on: K-562 leukemia
[7] = tested on: IGROV1 ovarian
[8] = tested on: KM20L2 colon
[9] = tested on: A498 renal
[10] = tested on: EKVX NSCLC
[11] = tested on: HL-60(TB) leukemia
[12] = tested on: RPMI-8226 leukemia
[13] = tested on: 786-0 renal
[14] = tested on: NCI-H226 lung
[15] = tested on: NCI-H460 lung
[16] = tested on: SNB-19 CNS
[17] = tested on: UACC-257 melanoma
[18] = tested on: U251 CNS
[19] = tested on: SW-620 colon
[20] = tested on: SK-MEL-5 melanoma
[21] = tested on: UO-31 renal
[22] = tested on: M19-MEL melanoma
[23] = tested on: COLO 205 colon
[24] = tested on: LOX IMVI melanoma
[25] = tested on: HCC-2998 colon
[26] = tested on: HCT-116 colon
[27] = tested on: ACHN renal
[28] = tested on: SNB-78 CNS
[29] = tested on: UACC-62 melanoma
[30] = tested on: TK-10 renal
[31] = tested on: A549 NSCLC
[32] = tested on: NCI-H522 lung
[33] = tested on: SR leukemia
[34] = tested on: SK-MEL-28 melanoma
[35] = tested on: HCT-15 colon
[36] = tested on: OVCAR-8 ovarian
[37] = tested on: OVCAR-3 ovarian
[38] = tested on: LXFL 529 NSCLC
[39] = tested on: HOP-62 NSCLC
[40] = tested on: RXF 393 renal
[41] = tested on: HOP-18 NSCLC
[42] = tested on: SK-OV-3 ovarian
[43] = tested on: SNB-75 CNS
[44] = tested on: MOLT-4 leukemia
[45] = tested on: SF-268 CNS
[46] = tested on: SK-MEL-2 melanoma
[47] = tested on: HT29 colon
[48] = tested on: CAKI-1 renal
[49] = tested on: M14 melanoma
[50] = tested on: OVCAR-4 ovarian
[51] = tested on: DMS 114 small cell lung
[52] = tested on: DMS 273 small cell lung
[53] = tested on: DLD-1 colon
[54] = tested on: NCI-H23 lung
[55] = tested on: OVCAR-5 ovarian
[56] = tested on: HOP-92 NSCLC
[57] = tested on: CCRF-CEM leukemia
[58] = tested on: XF 498 CNS

Measured: TGI

C=C(C)C1CC2C(C)=C(OC(C)=O)C1n1c(=O)c3cc4ccccc4cc3c(=O)n12 (stereo not drawn)
> 81.3 µM: [12]
> 90.9 µM: [40]
> 85.5 µM: [43]
> 93 µM: [33]
> 36 µM: [11]
not listed: [57] | [58]
> 100 µM: all other assays above

O=C1N[C@@H]2CCC[C@@H]2[C@@H]1c1ccc(Cl)cc1
not listed: [4] | [8] | [9] | [13] | [15] | [18] | [25] | [26] | [27] | [28] | [33] | [38] | [39] | [41] | [46] | [50] | [53] | [55] | [56] | [58]
> 100 µM: all other assays above

CC(C)N(C(=O)C12C3C4C1C1C2C3C41C(O)C(C)(C)C)C(C)C (stereo not drawn)
not listed: [1] | [12] | [14] | [15] | [17] | [24] | [30] | [40] | [41] | [46] | [50] | [53] | [54] | [55]
> 50 µM: all other assays above
